Measurements from patent US10729759B2, “Fluorocarbon-linked peptide formulation” (priority 2010, dated 2020).
“Also recorded” adds a separate entry of the source. Like-named read-outs stand apart in the source and are kept apart here.

Assays:
[1] = format: physicochemical; conditions: for Further dilution in Mannitol:Water Solubility: FCP 0.167 mM, 1.33% (w/v) mannitol, cloudiness / particulates; for Dispersion in Water Solubility: FCP 1.333 mM in water, vortexed and sonicated, cloudiness (Clear/Cloudy−/Cloudy/Cloudy+) / particulates
Protocol: The solubility of each FCP in water was assessed. Each FCP was dispersed in 300 μl of water to a final concentration of 1.333 mM and vortexed and sonicated. The typical dispersion conditions were four sequences of three minutes bath sonication interspersed by 30 seconds vortexing. After inspection, the resulting solution was diluted with a mannitol solution (a candidate lyophilisation medium, final concentration of peptide 0.167 mM, 1.33% (w/v) mannitol). Solubility was assessed by visual observation of the cloudiness of the resulting dispersion (scaled: Clear/Cloudy−/Cloudy/Cloudy+) and presence of particulates. […]

[2] = format: physicochemical; conditions: 1.33% mannitol, 0.22 μm PVDF filter; for YIELD % of each FCP following sterile filtration, MIX 1: MIX 1 dispersed in water; for YIELD % of each FCP following sterile filtration, MIX 2: MIX 2 dispersed in water
[3] = format: physicochemical; conditions: for Percentage acetic acid (% v/v): minimum concentration for acceptable dispersibility and solubility: FCP 2 μmol/ml after acetic acid dispersion; for Visual appearance after dispersion: at the listed acetic acid concentration, FCP 2 μmol/ml
Protocol: In order to limit the concentration of acetic acid downstream in the formulation process and in the final product, the lowest concentration of acetic acid in water to achieve efficient dispersion and maintain visible solubility was determined for each fluorocarbon-linked peptide. When using mannitol as a cryprotectant, it is important to minimize the acetic acid concentration at the lyophilisation stage in order to achieve a stable and amorphous freeze-dried product. The minimum acetic acid concentration to achieve acceptable dispersibility and solubility of the individual fluorocarbon-linked peptides was determined. The final concentration of fluorocarbon-linked peptide after initial acetic acid dispersion was 2 μmol/ml and after dilution with mannitol, 0.250 μmol/ml.

[4] = 10 mg net/ml in 10% or 80% acetic acid

## CC[C@H](C)[C@H](NC(=O)[C@H](C)NC(=O)[C@H](CCSC)NC(=O)[C@H](Cc1c[nH]cn1)NC(=O)[C@@H](N)CCCCNC(=O)CCC(F)(F)C(F)(F)C(F)(F)C(F)(F)C(F)(F)C(F)(F)C(F)(F)C(F)(F)F)C(=O)N[C@H](C(=O)N[C@@H](CCCCN)C(=O)N[C@@H](CCCCN)C(=O)N[C@@H](Cc1ccc(O)cc1)C(=O)N[C@H](C(=O)N[C@@H](CO)C(=O)NCC(=O)N[C@@H](CCCNC(=N)N)C(=O)N[C@@H](CCC(N)=O)C(=O)N[C@@H](CCC(=O)O)C(=O)N[C@@H](CCCCN)C(=O)N[C@@H](CC(N)=O)C(=O)N1CCC[C@H]1C(=O)N[C@@H](CO)C(=O)N[C@@H](CC(C)C)C(=O)N[C@@H](CCCNC(=N)N)C(=O)N[C@@H](CCSC)C(=O)N[C@@H](CCCCN)C(=O)N[C@@H](Cc1c[nH]c2ccccc12)C(=O)N[C@@H](CCSC)C(=O)N[C@@H](CCSC)C(=O)N[C@@H](C)C(=O)N[C@@H](CCSC)C(=O)N[C@@H](CCCCN)C(=O)N[C@@H](Cc1ccc(O)cc1)C(=O)N1CCC[C@H]1C(=O)N[C@H](C(=O)N[C@H](C(=O)N[C@@H](C)C(=O)N[C@@H](CC(=O)O)C(=O)N[C@@H](CCCCN)C(N)=O)[C@@H](C)O)[C@@H](C)CC)[C@@H](C)O)[C@@H](C)CC [FCP1]
[1]
  Further dilution in Mannitol:Water Solubility: partially soluble; also recorded: Clear/Particulates
  Dispersion in Water Solubility: Cloudy/Particulates
[2]
  YIELD % of each FCP following sterile filtration, MIX 1: 89.9%
[3]
  Percentage acetic acid (% v/v): minimum concentration for acceptable dispersibility and solubility: 10 % v/v
  Visual appearance after dispersion: Clear
10 mg net/ml in 10% (FCP1, 2, 4, 5) or 80% (FCP9, 8) acetic acid
  Ease of solubility, Cycle 1 Vortexing: Clear
[4]
  Ease of solubility, Cycle 1 Sonication: Clear
  Ease of solubility, Cycle 2 Sonication: Clear
  Ease of solubility, Cycle 2 Vortexing: Clear
  Ease of solubility, Cycle 3 Sonication: Clear
  Ease of solubility, Cycle 3 Vortexing: Clear
10 mg net/ml in AcOH 10% or 80%
  Visual appearance after dispersion: Clear

## CC[C@H](C)[C@H](NC(=O)[C@@H]1CCCN1C(=O)[C@H](C)NC(=O)[C@@H](N)CCCCNC(=O)CCC(F)(F)C(F)(F)C(F)(F)C(F)(F)C(F)(F)C(F)(F)C(F)(F)C(F)(F)F)C(=O)N[C@@H](CCSC)C(=O)N[C@@H](Cc1ccccc1)C(=O)N[C@@H](CO)C(=O)N[C@@H](CC(N)=O)C(=O)N[C@@H](CCCCN)C(=O)N[C@@H](CCSC)C(=O)N[C@@H](C)C(=O)N[C@@H](CCCNC(=N)N)C(=O)N[C@@H](CC(C)C)C(=O)NCC(=O)N[C@@H](CCCCN)C(=O)NCC(=O)N[C@@H](Cc1ccc(O)cc1)C(=O)N[C@@H](CCSC)C(=O)N[C@@H](Cc1ccccc1)C(=O)N[C@@H](CCC(=O)O)C(=O)N[C@@H](CO)C(=O)N[C@@H](CCCCN)C(=O)N[C@@H](CO)C(=O)N[C@@H](CCSC)C(=O)N[C@@H](CCCCN)C(=O)N[C@@H](CC(C)C)C(=O)N[C@@H](CCCNC(=N)N)C(=O)N[C@H](C(=O)N[C@@H](CCC(N)=O)C(=O)N[C@H](C(=O)N1CCC[C@H]1C(=O)N[C@@H](C)C(=O)N[C@@H](CCC(=O)O)C(=O)N[C@@H](CCSC)C(=O)N[C@@H](CC(C)C)C(=O)N[C@@H](C)C(N)=O)[C@@H](C)CC)[C@@H](C)O [FCP3]
[1]
  Further dilution in Mannitol:Water Solubility: partially soluble; also recorded: Clear/Particulates
  Dispersion in Water Solubility: Cloudy−/Particulates
[2]
  YIELD % of each FCP following sterile filtration, MIX 1: 28.6%

## CC[C@H](C)[C@H](NC(=O)[C@H](CO)NC(=O)[C@@H](NC(=O)CNC(=O)[C@H](CC(C)C)NC(=O)[C@@H](NC(=O)[C@@H](NC(=O)[C@H](CO)NC(=O)[C@H](CC(C)C)NC(=O)[C@H](CCSC)NC(=O)[C@H](CC(N)=O)NC(=O)[C@H](Cc1ccccc1)NC(=O)[C@H](CCSC)NC(=O)CNC(=O)[C@H](CCSC)NC(=O)[C@H](CCSC)NC(=O)[C@H](CCSC)NC(=O)CNC(=O)[C@@H]1CCCN1C(=O)[C@H](CO)NC(=O)[C@@H](N)CCCCNC(=O)CCC(F)(F)C(F)(F)C(F)(F)C(F)(F)C(F)(F)C(F)(F)C(F)(F)C(F)(F)F)[C@@H](C)O)C(C)C)C(C)C)C(=O)N[C@@H](CC(C)C)C(=O)N[C@@H](CC(N)=O)C(=O)N[C@@H](CC(C)C)C(=O)NCC(=O)N[C@@H](CCC(N)=O)C(=O)N[C@@H](CCCCN)C(=O)N[C@@H](CCCCN)C(=O)N[C@@H](Cc1ccc(O)cc1)C(=O)N[C@H](C(=O)N[C@@H](CCCCN)C(=O)N[C@H](C(=O)N[C@H](C(=O)N[C@@H](Cc1ccc(O)cc1)C(N)=O)[C@@H](C)O)[C@@H](C)O)[C@@H](C)O [FCP6]
[1]
  Further dilution in Mannitol:Water Solubility: partially soluble; also recorded: Clear/Particulates
  Dispersion in Water Solubility: Cloudy−/Particulates
[2]
  YIELD % of each FCP following sterile filtration, MIX 1: 74.1%
  YIELD % of each FCP following sterile filtration, MIX 2: 8.8%
[3]
  Percentage acetic acid (% v/v): minimum concentration for acceptable dispersibility and solubility: 80 % v/v
  Visual appearance after dispersion: Clear
[3]; gel or soluble particulates formed over time
  Physical stability of formulation at less than 80% (v/v) acetic acid: physically unstable over time

## CC[C@H](C)[C@H](NC(=O)[C@H](CO)NC(=O)[C@H](CC(C)C)NC(=O)[C@@H](NC(=O)[C@H](CC(N)=O)NC(=O)[C@H](CCCNC(=N)N)NC(=O)[C@H](Cc1ccccc1)NC(=O)[C@H](Cc1c[nH]c2ccccc12)NC(=O)[C@H](CCC(=O)O)NC(=O)[C@@H]1CCCN1C(=O)[C@H](CCC(N)=O)NC(=O)[C@H](CC(N)=O)NC(=O)[C@H](CCCCN)NC(=O)[C@@H](NC(=O)[C@@H](NC(=O)[C@H](Cc1ccc(O)cc1)NC(=O)[C@@H](N)CCCCNC(=O)CCC(F)(F)C(F)(F)C(F)(F)C(F)(F)C(F)(F)C(F)(F)C(F)(F)C(F)(F)F)[C@@H](C)CC)[C@@H](C)O)[C@@H](C)CC)C(=O)N[C@@H](C)C(=O)N1CCC[C@H]1C(=O)N[C@H](C(=O)N[C@@H](CCSC)C(=O)N[C@@H](Cc1ccccc1)C(=O)N[C@@H](CO)C(=O)N[C@@H](CC(N)=O)C(=O)N[C@@H](CCCCN)C(=O)N[C@@H](CCSC)C(=O)N[C@@H](C)C(=O)N[C@@H](CCCNC(=N)N)C(=O)N[C@@H](CC(C)C)C(=O)NCC(=O)N[C@@H](CCCCN)C(=O)NCC(=O)N[C@@H](Cc1ccc(O)cc1)C(=O)N[C@@H](CCSC)C(=O)N[C@@H](Cc1ccccc1)C(=O)N[C@@H](CCC(=O)O)C(N)=O)[C@@H](C)CC [FCP10]
[1]
  Further dilution in Mannitol:Water Solubility: partially soluble; also recorded: Clear/Particulates
  Dispersion in Water Solubility: Cloudy−/Particulates
[2]
  YIELD % of each FCP following sterile filtration, MIX 2: 90.7%

## CC[C@H](C)[C@H](NC(=O)[C@H](CCCNC(=N)N)NC(=O)[C@H](CCSC)NC(=O)CNC(=O)[C@H](CO)NC(=O)CNC(=O)[C@H](CCCNC(=N)N)NC(=O)[C@@H](NC(=O)[C@H](CC(N)=O)NC(=O)[C@@H](NC(=O)[C@@H](NC(=O)[C@H](CC(C)C)NC(=O)[C@H](CO)NC(=O)[C@H](CO)NC(=O)[C@H](Cc1ccccc1)NC(=O)[C@H](CCC(N)=O)NC(=O)[C@H](CCSC)NC(=O)[C@H](CCCNC(=N)N)NC(=O)[C@H](CO)NC(=O)[C@H](CCC(N)=O)NC(=O)[C@@H](N)CCCCNC(=O)CCC(F)(F)C(F)(F)C(F)(F)C(F)(F)C(F)(F)C(F)(F)C(F)(F)C(F)(F)F)[C@@H](C)O)C(C)C)C(C)C)C(=O)N[C@@H](CC(C)C)C(=O)N[C@H](C(=O)N[C@@H](CCCNC(=N)N)C(=O)NCC(=O)N[C@@H](CC(N)=O)C(=O)N[C@@H](CO)C(=O)N1CCC[C@H]1C(=O)N[C@H](C(=O)N[C@@H](Cc1ccccc1)C(=O)N[C@@H](CC(N)=O)C(=O)N[C@@H](Cc1ccc(O)cc1)C(=O)N[C@@H](CC(N)=O)C(=O)N[C@@H](CCCCN)C(N)=O)C(C)C)C(C)C [FCP11]
[1]
  Further dilution in Mannitol:Water Solubility: fully soluble; also recorded: Clear/No Particulates
  Dispersion in Water Solubility: fully soluble; also recorded: Clear/No Particulates
[2]
  YIELD % of each FCP following sterile filtration, MIX 2: 49.4%
